For the assay, the target named is T1, glucocorticoid receptor (GR) (Homo sapiens, UniProt P04150).
T1 construct: endogenous in cells; host or cells: HeLa (ATCC) cell lysate supernatant
T1 sequence (P04150 1-777): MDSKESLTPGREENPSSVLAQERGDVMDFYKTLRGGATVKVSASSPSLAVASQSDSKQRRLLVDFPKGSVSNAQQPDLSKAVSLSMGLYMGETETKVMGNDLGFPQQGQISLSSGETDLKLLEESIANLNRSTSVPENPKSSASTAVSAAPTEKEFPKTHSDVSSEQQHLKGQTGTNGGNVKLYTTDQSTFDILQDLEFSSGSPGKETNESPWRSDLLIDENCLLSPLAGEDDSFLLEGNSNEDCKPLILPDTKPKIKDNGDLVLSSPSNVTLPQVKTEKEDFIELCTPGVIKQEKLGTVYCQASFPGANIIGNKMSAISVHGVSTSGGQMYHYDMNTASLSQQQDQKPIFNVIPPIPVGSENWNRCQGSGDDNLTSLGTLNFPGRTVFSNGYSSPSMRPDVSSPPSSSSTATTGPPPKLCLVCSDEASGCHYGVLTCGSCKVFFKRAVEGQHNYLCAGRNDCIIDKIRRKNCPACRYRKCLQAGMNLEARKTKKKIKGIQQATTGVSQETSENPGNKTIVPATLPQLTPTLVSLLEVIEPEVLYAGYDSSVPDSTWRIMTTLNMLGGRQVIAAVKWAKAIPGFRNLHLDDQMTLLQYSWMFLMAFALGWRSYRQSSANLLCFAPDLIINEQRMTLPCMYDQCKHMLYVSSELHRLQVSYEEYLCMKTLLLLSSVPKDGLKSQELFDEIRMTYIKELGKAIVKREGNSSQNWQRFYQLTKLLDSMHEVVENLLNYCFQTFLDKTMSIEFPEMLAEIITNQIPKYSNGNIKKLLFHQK
The assay is described as follows: GR Ligand Binding Assay (3H-dexamethasone displacement, HeLa cell lysate). To be noted: 3H-DEX trace, DEX as reference, read-out: GR BIND Ki. On the procedure:
Binding Buffer: TEGM (10 mM Tris-HCl, 1 mM EDTA, 10% glycerol, 1 mM beta-mecaptoethanol, 10 mM Sodium Molybdate, pH 7.2)
Dexmethasone-methyl-^3H, (DEX*); (Amersham cat# TRK645) Dexamethasone(DEX) (Sigma, cat# D1756):
Cells (Hall R. E., et al., European Journal of Cancer, 30A: 484-490 (1994)) HeLa (ATCC) cultured in RPMI 1640 (Gibco 11835-055) containing 20 mM Hepes, 4 mM L-glu, 10 ug/ml of human insulin (Sigma, I-0259), 10% FBS and 20 ug/ml of Gentamicin (Gibco#15710-072) are rinsed twice in PBS. Phenol red-free Trypsin-EDTA is diluted in the same PBS 1:10. The cell layers are rinsed with 1× Trypsin, extra Trypsin is poured out, and the cell layers are incubated at 37° C. for ˜2 min. The flask is tapped and checked for signs of cell detachment. Once the cells begin to slide off the flask, the complete media is added. The cells are counted at this point, then diluted to the appropriate concentration and split into flasks or dishes for further culturing (Usually 1:3 to 1:6 dilution).
When the cells are 70 to 85% confluent, they are detached as described above, and collected by centrifuging at 1000 g for 10 minutes at 4° C. The cell pellet is washed twice with TEGM (10 mM Tris-HCl, 1 mM EDTA, 10% glycerol, 1 mM beta-mercaptoethanol, 10 mM Sodium Molybdate, pH 7.2). After the final wash, the cells are resuspended in TEGM at a concentration of 10^7 cells/mL. The cell suspension is snap frozen in liquid nitrogen or ethanol/dry ice bath and transferred to −80° C. freezer on dry ice. Before setting up the binding assay, the frozen samples are left on ice-water to just thaw (˜1 hr). Then the samples are centrifuged at 12,500 g to 20,000 g for 30 min at 4° C. The supernatant is used to set-up assay right away. If using 50 μL of supernatant, the test compound can be prepared in 50 μL of the TEGM buffer.
1×TEGM buffer is prepared, and the isotope-containing assay mixture is prepared in the following order: EtOH (2% final concentration in reaction), ^3H-DEX (Amersham Biosciences) and 1×TEGM. [e.g. For 100 samples, 200 μL (100×2) of EtOH+4.25 μL of 1:10 ^3H—Dex stock+2300 μL (100×23) 1×TEGM]. The compound is serially diluted, e.g., if starting final conc. is 1 μM, and the compound is in 25 μL of solution, for duplicate samples, 75 μL of 4×1 μM solution is made and 3 μL of 100 μM is added to 72 μL of buffer, and 1:5 serial dilution.
25 μL, of 3H-DEX (6 nM) trace and 25 μL compound solution are first mixed together, followed by addition of 50 μL receptor solution. The reaction is gently mixed, spun briefly at about 200 rpm and incubated at 4° C. overnight. 100 μL of 50% HAP slurry is prepared and added to the incubated reaction which is then vortexed and incubated on ice for 5 to 10 minutes. The reaction mixture is vortexed twice more to resuspend HAP while incubating reaction. The samples in 96-well format are then washed in wash buffer using The FilterMate™ Universal Harvester plate washer (Packard). The washing process transfers HAP pellet containing ligand-bound expressed receptor to Unifilter-96 GF/B filter plate (Packard). The HAP pellet on the filter plate is incubated with 50 μL of MICROSCINT (Packard) scintillint for 30 minutes before being counted on the TopCount microscintillation counter (Packard). IC50s are calculated using DEX as a reference.
`C[C@]12Cc3cnn(-c4ccc(F)cc4)c3C=C1CC[C@@]2(CO)CC(O)c1ccccn1` (single isomer, unassigned) [Example 1a]: the Ki came to 5.2 nM.

`C[C@]12Cc3cnn(-c4ccc(F)cc4)c3C=C1CC[C@@]2(CO)CC(O)c1ccccn1` (single isomer, unassigned) [Example 1b]: the Ki was 4 nM. For `Cc1ccc(C(O)C[C@]2(CO)CCC3=Cc4c(cnn4-c4ccc(F)cc4)C[C@@]32C)cc1` (single isomer, unassigned) [Example 2a], the inhibitory constant (Ki) is 2.2 nM. The result for `Cc1ccc(C(O)C[C@]2(CO)CCC3=Cc4c(cnn4-c4ccc(F)cc4)C[C@@]32C)cc1` (single isomer, unassigned) [Example 2b] reads 2.1 nM; that for `C[C@]12Cc3cnn(-c4ccc(F)cc4)c3C=C1CC[C@@]2(CO)CC(O)c1ccccc1Cl` (single isomer, unassigned) [Example 3a], 0.9 nM. `C[C@]12Cc3cnn(-c4ccc(F)cc4)c3C=C1CC[C@@]2(CO)CC(O)c1ccccc1Cl` (single isomer, unassigned) [Example 3b]: the Ki amounted to 0.9 nM. The value for `Cc1cccc(C(O)C[C@]2(CO)CCC3=Cc4c(cnn4-c4ccc(F)cc4)C[C@@]32C)c1` (single isomer, unassigned) [Example 5a] was 1.4 nM; that for `Cc1cccc(C(O)C[C@]2(CO)CCC3=Cc4c(cnn4-c4ccc(F)cc4)C[C@@]32C)c1` (single isomer, unassigned) [Example 5b] was 0.9 nM; that for `C[C@]12Cc3cnn(-c4ccc(F)cc4)c3C=C1CC[C@@]2(CO)CC(O)c1cc(F)cc(Cl)c1` (single isomer, unassigned) [Example 6a] was 1.1 nM. The result for `C[C@]12Cc3cnn(-c4ccc(F)cc4)c3C=C1CC[C@@]2(CO)CC(O)c1cc(F)cc(Cl)c1` (single isomer, unassigned) [Example 6b] reads 1.3 nM. The result for `C[C@]12Cc3cnn(-c4ccc(F)cc4)c3C=C1CC[C@@]2(CO)CC(O)c1cccc(C(F)(F)F)c1` (single isomer, unassigned) [Example 7a] reads 0.6 nM. Turning to `C[C@]12Cc3cnn(-c4ccc(F)cc4)c3C=C1CC[C@@]2(CO)CC(O)c1cccc(C(F)(F)F)c1` (single isomer, unassigned) [Example 7b], the Ki was found to be 0.9 nM. On to `C[C@]12Cc3cnn(-c4ccc(F)cc4)c3C=C1CC[C@@]2(CO)CC(O)c1ncccc1F` (single isomer, unassigned) [Example 10a], for which the Ki amounted to 3.1 nM. The value for `C[C@]12Cc3cnn(-c4ccc(F)cc4)c3C=C1CC[C@@]2(CO)CC(O)c1ncccc1F` (single isomer, unassigned) [Example 10b] was 1.8 nM; that for `C[C@]12Cc3cnn(-c4ccc(F)cc4)c3C=C1CC[C@@]2(CO)CC1OC(=O)c2ccccc21` (single isomer, unassigned) [Example 12a] was 2.6 nM. The result for `C[C@]12Cc3cnn(-c4ccc(F)cc4)c3C=C1CC[C@@]2(CO)CC1OC(=O)c2ccccc21` (single isomer, unassigned) [Example 12b] reads 1.5 nM; that for `C[C@]12Cc3cnn(-c4ccc(F)cc4)c3C=C1CC[C@@]2(CO)CC(O)c1ccccc1` (single isomer, unassigned) [Example 13a], 2.5 nM; that for `C[C@]12Cc3cnn(-c4ccc(F)cc4)c3C=C1CC[C@@]2(CO)CC(O)c1ccccc1` (single isomer, unassigned) [Example 13b], 1.9 nM. The result for `CC(C)C(O)C[C@]1(CO)CCC2=Cc3c(cnn3-c3ccc(F)cc3)C[C@@]21C` (single isomer, unassigned) [Example 14a] reads 6.4 nM; that for `CC(C)C(O)C[C@]1(CO)CCC2=Cc3c(cnn3-c3ccc(F)cc3)C[C@@]21C` (single isomer, unassigned) [Example 14b], 14.1 nM. As for `C[C@]12Cc3cnn(-c4ccc(F)cc4)c3C=C1CC[C@@]2(CO)CC(O)c1cccnc1` (single isomer, unassigned) [Example 15a], the Ki turned out to be 10 nM. For `C[C@]12Cc3cnn(-c4ccc(F)cc4)c3C=C1CC[C@@]2(CO)CC(O)c1cccnc1` (single isomer, unassigned) [Example 15b], the Ki was found to be 8.3 nM. For the compound `C[C@]12Cc3cnn(-c4ccc(F)cc4)c3C=C1CC[C@@]2(CO)CC(O)c1ccncc1` (single isomer, unassigned) [Example 17a], the Ki was determined as 6.4 nM. The result for `C[C@]12Cc3cnn(-c4ccc(F)cc4)c3C=C1CC[C@@]2(CO)CC(O)c1ccncc1` (single isomer, unassigned) [Example 17b] reads 7.5 nM; that for `C[C@]12Cc3cnn(-c4ccc(F)cc4)c3C=C1CC[C@@]2(CO)CC(O)C1CCCCC1` (single isomer, unassigned) [Example 18a, 1-cyclohexyl-2-[(4αS)-1-(4-fluorophenyl)-5-(hydroxymethyl)-4α-methyl-1,4,4α,5,6,7-hexahydrocyclopenta[f]indazol-5-yl]ethanol], 1.7 nM; that for `C[C@]12Cc3cnn(-c4ccc(F)cc4)c3C=C1CC[C@@]2(CO)CC(O)C1CCCCC1` (single isomer, unassigned) [Example 18b, 1-cyclohexyl-2-[(4αS)-1-(4-fluorophenyl)-5-(hydroxymethyl)-4α-methyl-1,4,4α,5,6,7-hexahydrocyclopenta[f]indazol-5-yl]ethanol], 2.3 nM. The result for `C[C@]12Cc3cnn(-c4cccc(F)c4)c3C=C1CC[C@@]2(CO)CC(O)c1ccccn1` (single isomer, unassigned) [Example 19a] reads 3.7 nM. The result for `C[C@]12Cc3cnn(-c4cccc(F)c4)c3C=C1CC[C@@]2(CO)CC(O)c1ccccn1` (single isomer, unassigned) [Example 19b] reads 9 nM; that for `C[C@]12Cc3cnn(-c4ccc(F)cc4)c3C=C1CC[C@@]2(CO)CC(O)C1CC1` (single isomer, unassigned) [Example 20a, 1-cyclopropyl-2-[(4αS)-1-(4-fluorophenyl)-5-(hydroxymethyl)-4α-methyl-1,4,4α,5,6,7-hexahydrocyclopenta[f]indazol-5-yl]ethanol], 22.6 nM.

Consider `C[C@]12Cc3cnn(-c4ccc(F)cc4)c3C=C1CC[C@@]2(CO)CC(O)C1CC1` (single isomer, unassigned) [Example 20b, 1-cyclopropyl-2-[(4αS)-1-(4-fluorophenyl)-5-(hydroxymethyl)-4α-methyl-1,4,4α,5,6,7-hexahydrocyclopenta[f]indazol-5-yl]ethanol], for which the Ki came to 15.1 nM.

The values above are taken from patent US20120095055A1, “HEXAHYDROCYCLOPENTYL[f]INDAZOLE 5-HYDROXYMETHYL ETHANOLS AND DERIVATIVES THEREOF AS SELECTIVE GLUCOCORTICOID RECEPTOR MODULATORS” (Merck Sharp & Dohme, Corp., priority 2009, published 2012).
